Read-outs that look alike come from different tables or passages of the source.
Assays:
skinned cardiac fiber = assay: Calcium sensitizing effect in skinned cardiac fiber; assay type: cell-based, guinea-pig; details: test compound 0.1-10 μM added cumulatively, calcium (pCa 6.0 or 6.2)-induced tension, room temperature; for Emax: Cavia porcellus, maximum effect, read-out: Change in force/ % change from control (maximum calcium sensitizing effect in skinned fiber)
Experimental: Experiment 1. Calcium sensitizing effect in skinned cardiac fiber
The heart of a guinea-pig was excised and perfused with ice-cold saponin (125 mg/l) skinning solution consisting of (mM): K^+-acetate 74.7. EGTA-Na2 10, MgSO4 5.4, ATP-Na2 4, MOPS 20, pH 7.0 (by 1 M KOH). Left ventricular papillary muscle was dissected and sonicated at 10 Watt for 60 s. The distance between ultrasound probe and the papillary muscle was 10 mm. The fibres (<200 μm in diameter) were dissected from the surface of sonicated papillary muscles in the same solution.
The fibre was glued between platinum wires, one attached to an isometric force transducer (type AE-801,SensoNor, Horten, Norway) and another to a micro manipulator. The fibre was relaxed in a solution consisting of (mM): EGTA-Na2 10, MgSO4 5.4, ATP-Na2 4, MOPS 20. The pH of the solution was adjusted to 7.0 and ionic strength to 0.16 M by the addition of KOH and K^+-acetate. Creatine kinase and creatine phosphate were not added as an ATP generating system because the developed tension was well sustained for the time required for experiment. The calculations for ionic strength and for free calcium (pCa 7.0-6.2) were performed using a suitable program. The fibres were stretched in relaxing solution until resting tension was just noticeable. When the calcium (pCa 6.0 or 6.2)-induced tension had reached steady state the test compound (final concentrations 0.1, 0.3, 1, 3,and 10 μM) was cumulatively added into the solution at 6 min intervals. All the experiments were carried out with fresh fibres at normal room temperature.

isolated heart = assay: Effect in left ventricular pressure derivatives in isolated heart (Langendorff); details: isolated guinea-pig heart, constant pressure 50 mmHg, 37° C., read-out: EC50 on maximal positive derivative of the left ventricular systolic pressure
Experimental: Experiment 2. Effect in left ventricular pressure derivatives in isolated heart
After sacrification the heart of a guinea-pig was rapidly excised and rinsed in oxygenated perfusion buffer. A cannula was inserted into the aorta and secured with a ligature. Retrograde perfusion began as soon as the heart was placed in a thermostatically controlled moist chamber of the Langendorff apparatus (Hugo Sachs Elektronik, KG). Modified Tyrode solution (37° C.), equilibrated in a thermostatically controlled bulb oxygenator with carbogen (95% O2 and 5% CO2), was used as a perfusion buffer. The composition of the Tyrode solution was (in mM): NaCl 135; MgCl2×6H2O 1; KCl 5; CaCl2×2H2O 2; NaHCO3 15; Na2HPO4×2H2O 1; glucose 10; pH 7.3-7.4. The perfusion buffer was delivered at the top of the oxygenator by a pump and driven automatically by its controller. Subsequently, the buffer was delivered into the bulbs of the oxygenator chamber by a rotating disk. It was dispersed by making a thin fluid film on a large inner oxygenator surface in O2/CO2 atmosphere leading to saturation of the perfusate with oxygen (partial pressure 660 mmHg at 37° C.).
The experiments were carried out under constant pressure condition (50 mmHg). After a short prestabilization (10 min) a latex balloon (size 4) was carefully placed into the left ventricle through the left pulmonary vein and the left atrium. The latex balloon was attached to a stainless-steel cannula coupled with a pressure transducer. The latex balloon, the cannula and the chamber of the pressure transducer were carefully filled with ethylene glycol/water (1:1) mixture avoiding any air-bubble. The isovolumetric left ventricular pressure was recorded through the pressure transducer. At the beginning of the experiment, the volume of the balloon was adjusted to obtain a diastolic pressure of approximately 5 mmHg. Before starting the experiment the heart was allowed to stabilise further for 30-50 min. The systolic and end-diastolic left ventricular pressures were recorded for calculating the maximal positive and negative derivatives of the left ventricular pressure.

Row | EC50 (isolated heart; Cavia porcellus) [nM] | melting point [°C] | EC50 (isolated heart) [nM] | SMILES | Emax (skinned cardiac fiber) [%] | Change in force/ % change from control (maximum calcium sensitizing effect in skinned fiber) (skinned cardiac fiber) [% change from control]
1 |  | 145 to 155 |  | CC(=O)Nc1ccc(C(C)=NNc2ccc(C3=NNC(=O)CC3C)cc2)cc1 (stereo not drawn) [Example 37, N-[4-(1-{[4-(4-Methyl-6-oxo-1,4,5,6-tetrahydro-pyridazin-3-yl)-phenyl]-hydrazono}-ethyl)-phenyl]-acetamide] | 21.7 | 
2 |  | 244 to 248 |  | CC(=NNc1ccc(C2=NNC(=O)CC2C)cc1)c1ccc(O)c(C)c1O (stereo not drawn) [Example 38, 6-(4-{N′-[1-(2,4-Dihydroxy-3-methyl-phenyl)-ethylidene]-hydrazino}-phenyl)-5-methyl-4,5-dihydro-2H-pyridazin-3-one] | 32.2 | 
3 |  |  | 250 | CC(=NNc1ccc(C2=NNC(=O)CC2C)cc1)c1ccc(O)c(C)c1O (stereo not drawn) [Example 49, 6-(4-{N-[1-(2,4-Dihydroxy-3-methylphenyl)ethylidene]hydrazino}phenyl)-5-methyl-4,5-dihydro-2H-pyridazin-3-one] |  | 28.7
4 |  | 299 to 302 |  | CC1CC(=O)NN=C1c1ccc(NN=C(CCC(=O)O)c2ccc(O)cc2O)cc1 (stereo not drawn) [Example 64, 4-(2,4-Dihydroxy-phenyl)-4-{[4-(4-methyl-6-oxo-1,4,5,6-tetrahydro-pyridazin-3-yl)-phenyl]-hydrazono}-butyric acid] |  | 
5 |  | 251 to 254 |  | COc1c(O)ccc(C(C)=NNc2ccc(C3=NNC(=O)CC3C)cc2)c1[N+](=O)[O-] (stereo not drawn) [Example 67, 6-(4-{N′-[1-(4-Hydroxy-3-methoxy-2-nitro-phenyl)-ethylidene]-hydrazino}-phenyl)-5-methyl-4,5-dihydro-2H-pyridazin-3-one] |  | 

Continued, compound first:

Row | SMILES | EC50 (isolated heart; Cavia porcellus) [nM] | melting point [°C] | EC50 (isolated heart) [nM] | Emax (skinned cardiac fiber) [%] | Change in force/ % change from control (maximum calcium sensitizing effect in skinned fiber) (skinned cardiac fiber) [% change from control]
6 | COc1c(O)ccc(C=NNc2ccc(C3=NNC(=O)C[C@H]3C)cc2)c1[N+](=O)[O-] [Example 2, (R)-6-{4-[N′-(4-Hydroxy-3-methoxy-2-nitro-benzylidene)-hydrazino]-phenyl}-5-methyl-4,5-dihydro-2H-pyridazin-3-one] | 20 |  |  | 207 | 
7 | COc1c(O)ccc(C=NNc2ccc(C3=NNC(=O)CC3C)cc2)c1[N+](=O)[O-] (stereo not drawn) [Example 6, 6-{4-[N′-(4-Hydroxy-3-methoxy-2-nitro-benzylidene)-hydrazino]-phenyl}-5-methyl-4,5-dihydro-2H-pyridazin-3-one] | 310 | 235 to 239 |  | 32.9 | 
8 | Cc1cc(=O)[nH]nc1-c1ccc(NN=Cc2ccc(O)cc2O)cc1 [Example 21, 6-{4-[N′-(2,4-Dihydroxybenzylidene)hydrazino]phenyl}-5-methyl-2H-pyridazin-3-one] | 3040 | 303 to 310 |  | 44.2 | 
9 | CC(=NNc1ccc(-c2n[nH]c(=O)cc2C)cc1)c1ccc(O)cc1O [Example 23, 6-{4-{N′-[1-(2,4-Dihydroxyphenyl)ethylidene]hydrazino}phenyl}-5-methyl-2H-pyridazin-3-one] | 2470 |  |  | 39.9 | 
10 | Cc1cc(=O)n(C)nc1-c1ccc(NN=Cc2ccc(O)cc2O)cc1 [Example 24, 6-{4-[N′-(2,4-Dihydroxybenzylidene)hydrazino]phenyl}-2,5-dimethyl-2H-pyridazin-3-one] |  | 266 to 269 |  | 42 | 
11 | CC1CC(=O)NN=C1c1ccc(NN=C(c2ccc(O)cc2O)c2ccc(O)cc2O)cc1 (stereo not drawn) [Example 34, 6-(4-{N′-[Bis-(2,4-dihydroxy-phenyl)-methylene]-hydrazino}-phenyl)-5-methyl-4,5-dihydro-2H-pyridazin-3-one] | 110 |  |  | 52.8 | 
12 | CC1CC(=O)NN=C1c1ccc(NN=Cc2ccc(O)c([N+](=O)[O-])c2)cc1 (stereo not drawn) [Example 63, 6-{4-[N′-(4-Hydroxy-3-nitro-benzylidene)-hydrazino]-phenyl}-5-methyl-4,5-dihydro-2H-pyridazin-3-one] |  | 230 to 233 |  |  | 
13 | CC1CC(=O)NN=C1c1ccc(NN=C(CCCC(=O)O)c2ccc(O)cc2O)cc1 (stereo not drawn) [Example 66, 5-(2,4-Dihydroxy-phenyl)-5-{[4-(4-methyl-6-oxo-1,4,5,6-tetrahydro-pyridazin-3-yl)-phenyl]-hydrazono}-pentanoic acid] |  | 235 to 240 |  |  | 
